Experimental findings from PubChem BioAssay (NCI) are described below.

Test systems include DLD-1 colon; HOP-18 NSCLC; LXFL 529 NSCLC; XF 498 CNS; DMS 273 small cell lung; SNB-78 CNS; M19-MEL melanoma; MDA-N; RXF-631 renal; P388/ADR leukemia; P388 leukemia.
Assay in all cases: NCI tumour cell line growth inhibition, 48 h

“And” between values parts separate entries of the source, which are not always exact repeats. Identical values can stand only once.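 Tested at 5 concentrations; 48 h exposure; 96-well plates; endpoints linearly interpolated, else capped at highest concentration. GI50 = concentration required for 50% inhibition of growth. The concentration for full growth arrest is given as TGI.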

As to `CC1OC(n2cc(I)c(=O)[nH]c2=O)C=CC1=O` (stereo not drawn), the TGI is 26 µM in the experiment with DLD-1 colon; 30.3 µM in the experiment with HOP-18 NSCLC; 22.7 µM in the experiment with LXFL 529 NSCLC; 33.3 µM with XF 498 CNS; 31.3 µM in the experiment with DMS 273 small cell lung; 31.9 µM with SNB-78 CNS. In the experiment on M19-MEL melanoma, this compound came in with a TGI of 30.6 µM.

Regarding `Cc1cc(O)c(O)c(Oc2cc(C)cc(O)c2O)c1`, the TGI with MDA-N was greater than 100 µM.

With `Nc1nc(Cl)nc2c1ncn2C1CCC(COP(=O)(O)OP(=O)(O)OP(=O)(O)O)O1` (stereo not drawn), the TGI with MDA-N is greater than 100 µM.

With `CC1=C2[C@@H](c3ccccc3)C3C=CC2(c2ccccc23)N(C(=O)Nc2cccc3ccccc23)C1=O` (stereo partly drawn), the TGI with HOP-18 NSCLC, with LXFL 529 NSCLC, in the experiment on XF 498 CNS, with DMS 273 small cell lung and in the experiment on SNB-78 CNS was greater than 100 µM throughout.

As to `C[CH2][Sn]([Cl])([CH2]C)[CH2]C`, the GI50 was 0.973 µM in the experiment with DLD-1 colon; 0.469 µM in the experiment on LXFL 529 NSCLC; 0.867 µM in the experiment with XF 498 CNS; 0.922 µM in the experiment on SNB-78 CNS; 2.06 µM in the experiment with M19-MEL melanoma. In addition, the TGI in the experiment with DLD-1 colon was 15.8 µM; in the experiment with LXFL 529 NSCLC, 3.27 µM; in the experiment on XF 498 CNS, 3.26 µM; with SNB-78 CNS, 5.04 µM; in the experiment on M19-MEL melanoma, 11.4 µM.

`O=[N+]([O-])c1cc([N+](=O)[O-])c(C(Cl)C(Cl)c2ccccc2)cc1C(Cl)C(Cl)c1ccccc1` (stereo not drawn): the TGI in the experiment with DLD-1 colon was 3.27 µM; with HOP-18 NSCLC it was 3.53 µM; in the experiment on LXFL 529 NSCLC, 2.87 µM; in the experiment with XF 498 CNS it was 3.55 µM; in the experiment on RXF-631 renal it was greater than 21.1 µM; with DMS 273 small cell lung, 4.08 µM. For the same compound, the TGI is 9.72 µM in the experiment on SNB-78 CNS and 3.62 µM in the experiment on M19-MEL melanoma.

Regarding `CO[C@]12CCC(=O)N1C=Cc1c2[nH]c2ccccc12`, the TGI with DLD-1 colon, in the experiment with HOP-18 NSCLC, in the experiment on LXFL 529 NSCLC, in the experiment with SNB-78 CNS and with M19-MEL melanoma was greater than 100 µM in each case.

Consider `O=C(NCCCCCCNC(=O)NC1OCC(O)C(O)C1O)NC1OCC(O)C(O)C1O` (stereo not drawn), for which the TGI in the experiment on DLD-1 colon, in the experiment with LXFL 529 NSCLC, in the experiment with SNB-78 CNS and in the experiment on M19-MEL melanoma was greater than 100 µM throughout.

Turning to `CN1CCN(CCCN2c3ccccc3Sc3ccc(C(F)(F)F)cc32)CC1`, the TGI is 26.9 µM in the experiment on DLD-1 colon; 21.5 µM in the experiment on HOP-18 NSCLC; 12.5 µM and 12.3 µM with MDA-N; 23 µM in the experiment with LXFL 529 NSCLC; 19.8 µM in the experiment on DMS 273 small cell lung; 32.1 µM in the experiment on SNB-78 CNS. The compound further displayed a TGI with M19-MEL melanoma of 3.75 µM.

For the compound `Cc1ccc2nc(CC(=O)c3ccc4ccccc4c3)c(=O)[nH]c2c1`, in the experiment with MDA-N, the TGI was greater than 100 µM.

In the case of `C=C(CN(C)C)C(=O)c1ccc(OC)cc1`, the TGI is 2.03 µM with DLD-1 colon; 9.35 µM in the experiment on HOP-18 NSCLC; 22.5 µM in the experiment on MDA-N; 3.31 µM with LXFL 529 NSCLC; 5.1 µM in the experiment on XF 498 CNS; 11.6 µM with DMS 273 small cell lung. Besides, the figures for the TGI with SNB-78 CNS and in the experiment on M19-MEL melanoma were 7.83 µM and 7.52 µM, respectively.

With `CN1CCc2cc(O)c3cc2C1Cc1ccc(cc1)Oc1cc(ccc1O)CC1c2c(cc4c(c2O3)OCO4)CCN1C` (stereo not drawn), the TGI is greater than 100 µM in the experiment with DLD-1 colon, 29.2 µM in the experiment with XF 498 CNS, 86.2 µM in the experiment on DMS 273 small cell lung and greater than 100 µM with SNB-78 CNS.

On to `COc1ccc(CCN2COc3ccc4ccc(=O)oc4c3C2)cc1OC`, for which the TGI with MDA-N is greater than 100 µM.

Take `CCOC(=O)NN(C(=O)OCC)C(C(=O)c1ccc(Cl)cc1)=C1NCCN1`: the TGI in the experiment with DLD-1 colon, in the experiment on HOP-18 NSCLC, with LXFL 529 NSCLC, in the experiment on XF 498 CNS, in the experiment on DMS 273 small cell lung and in the experiment with SNB-78 CNS was greater than 100 µM each time. For the same compound, the TGI with M19-MEL melanoma was greater than 100 µM.

Regarding `CCC[CH2][Ge]([CH2]CCC)([CH2]CCC)[O]C(=O)C(OC(C)=O)c1ccccc1` (stereo not drawn), the GI50 with DLD-1 colon was 1.76 µM; in the experiment on HOP-18 NSCLC, 16.2 µM; in the experiment with LXFL 529 NSCLC it was 1.31 µM; in the experiment with XF 498 CNS, 2.57 µM; in the experiment with DMS 273 small cell lung it was 5.84 µM; in the experiment with SNB-78 CNS, 2.99 µM. Besides, the GI50 in the experiment with M19-MEL melanoma is 5.13 µM. In addition, the TGI in the experiment on DLD-1 colon is 19 µM; in the experiment on HOP-18 NSCLC, 43.8 µM; in the experiment with LXFL 529 NSCLC, 21 µM; with XF 498 CNS it was 15.4 µM; in the experiment on DMS 273 small cell lung it was greater than 37 µM; with SNB-78 CNS it was 24.7 µM. Further, the TGI in the experiment on M19-MEL melanoma is 20.3 µM.

`C/C=C1\C[C@@H]2C(OC)Nc3cc(O)c(OC)cc3C(=O)N2C1` (stereo partly drawn): the TGI in the experiment on DLD-1 colon was 20 µM; in the experiment on MDA-N, 0.0319 µM and < 0.0163 µM; in the experiment on P388/ADR leukemia it was 0.0104 µM; with LXFL 529 NSCLC, 0.209 µM; with XF 498 CNS, 0.00398 µM; in the experiment on DMS 273 small cell lung, 0.0917 µM and < 0.0143 µM. In addition, the TGI with P388 leukemia was less than 0.0123 µM; with M19-MEL melanoma it was 0.0413 µM and 0.0101 µM. Besides, the GI50 in the experiment with MDA-N was 0.014 µM; with XF 498 CNS it was 0.00191 µM.

Consider `CC(=O)OCc1c(C)c2ccccc2n1C(C)=O`, for which the TGI in the experiment on HOP-18 NSCLC was greater than 100 µM; in the experiment on XF 498 CNS it was 84.6 µM; in the experiment on RXF-631 renal it was 66.9 µM; in the experiment on DMS 273 small cell lung it was 59.9 µM; in the experiment with M19-MEL melanoma, greater than 100 µM.
